Our source for the IC50 values is BindingDB's records for patent US11066409 (Shionogi, 2021).

Structures are written as SMILES. Some results are limits rather than exact numbers.

The target of the test is T1, P2X purinoceptor 7 [R270H] (Homo sapiens, UniProt Q99572, R270H).
T1 construct: gene P2RX7
Put plainly: Inhibition Assay. On the procedure:
Evaluation of a human P2X7 receptor inhibitory activity Stably expressing cell line (1321N1 cell transfected with the human P2X7 receptor gene (GenBank accession number NM_002562.5 including T606C and G952A SNP)) was used. The cells were seeded in a 384-well microtiter plate at a concentration of 8000 cells/well and cultured in the medium (10% fetal bovine serum, 25 mM HEPES, 1% penicillin and streptomycin in DMEM) for one day at 37° C. under 5% carbon dioxide atmosphere. After replacing with 20 μL of the HBSS buffer (20 mM HEPES, 55.6 mM D-glucose, 1× HBSS(−), pH7.4-7.5), 15 μL of 17.3 μM Yo-Pro solution in the HBSS buffer was added. The plate was placed in high-throughput cellular screening system FLIPR TETRA (Molecullar Devices, LLC.) and 15 μL of 130 μM BzATP solution in the HBSS buffer was added. Measurement of fluorescence intensity by FLIPR TETRA was started. After eight minutes, 15 μL of DMSO solutions containing different concentrations of the compound of the present invention as prepared by dilution with the HBSS buffer were dispensed to each well through the built-in automatic dispenser, and the measurement of fluorescence intensity was continued for 20 minutes. The maximum fluorescence intensity without the compound of the present invention is calculated as 0% inhibition and the maximum fluorescence intensity when the reference compound was added is calculated as 100% inhibition.

T1 sequence (Q99572 whole entry R270H, looked up): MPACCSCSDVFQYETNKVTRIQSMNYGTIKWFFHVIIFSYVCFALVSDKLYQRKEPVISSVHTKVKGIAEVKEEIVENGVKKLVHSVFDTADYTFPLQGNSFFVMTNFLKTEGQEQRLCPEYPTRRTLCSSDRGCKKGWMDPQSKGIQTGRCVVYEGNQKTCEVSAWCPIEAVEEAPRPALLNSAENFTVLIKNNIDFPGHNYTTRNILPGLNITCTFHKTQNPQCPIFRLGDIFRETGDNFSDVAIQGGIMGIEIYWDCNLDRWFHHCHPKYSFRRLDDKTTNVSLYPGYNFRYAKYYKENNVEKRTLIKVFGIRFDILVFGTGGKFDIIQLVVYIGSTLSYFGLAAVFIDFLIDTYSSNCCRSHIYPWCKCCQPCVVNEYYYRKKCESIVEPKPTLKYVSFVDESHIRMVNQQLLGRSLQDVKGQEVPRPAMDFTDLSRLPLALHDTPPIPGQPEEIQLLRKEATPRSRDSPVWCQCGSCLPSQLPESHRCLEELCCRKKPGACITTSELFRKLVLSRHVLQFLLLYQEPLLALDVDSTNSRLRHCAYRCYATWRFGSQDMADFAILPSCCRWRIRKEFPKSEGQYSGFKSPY

One may read the IC50 as the point on the concentration scale where inhibition reaches its midpoint. Lower therefore signals inhibition by little substance. The compound `COc1cc(Nc2nc(=O)c(F)c3n2C(c2cc(F)cc(F)c2)CC3)c(C)cc1F` (stereo not drawn) [US11066409, Compound I-0099] showed an IC50 of less than 0.01 µM.
The value for `Cc1cc(F)c(CO)cc1NC1=NC(=O)N(C)C2=NCC(c3cc(F)c(F)c(F)c3)N12` (stereo not drawn) [US11066409, Compound I-0168] was 0.023 µM; that for `Cc1ccc(OCCO)cc1NC1=NC(=O)N(C)C2=NCC(c3cc(F)c(F)c(F)c3)N12` (stereo not drawn) [US11066409, Compound I-0171] was 0.019 µM.
